Measurements published in PubChem BioAssay (NCI).
Where “and” joins values, the source holds several entries; their conditions need not be identical. Equal entries are not always repeated.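 Step 1: Grow cells in 96-well plates. Step 2: Expose to compound for 48 hours at 5 concentrations. Step 3: Interpolate endpoints linearly; if unreached, use highest concentration. The concentration for 50% growth inhibition is given as GI50. TGI: total growth inhibition.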

Legend:
Assay in all cases: DTP human tumour cell line panel, 48 h
A549 NSCLC = test system: A549 NSCLC
ACHN renal = test system: ACHN renal
HOP-62 NSCLC = test system: HOP-62 NSCLC
MDA-MB-231 breast = test system: MDA-MB-231 breast
SF-268 CNS = test system: SF-268 CNS
SK-MEL-2 melanoma = test system: SK-MEL-2 melanoma
SN12C renal = test system: SN12C renal
SNB-19 CNS = test system: SNB-19 CNS
SR leukemia = test system: SR leukemia
SW-620 colon = test system: SW-620 colon

Row | SMILES | GI50 (A549 NSCLC) | TGI (A549 NSCLC) [µM] | GI50 (ACHN renal) [µM] | TGI (ACHN renal) [µM] | GI50 (HOP-62 NSCLC) [µM] | TGI (HOP-62 NSCLC) | GI50 (MDA-MB-231 breast) | TGI (MDA-MB-231 breast) | GI50 (SF-268 CNS) [µM] | TGI (SF-268 CNS) | GI50 (SK-MEL-2 melanoma) [µM] | TGI (SK-MEL-2 melanoma) [µM] | GI50 (SN12C renal) | TGI (SN12C renal) | GI50 (SNB-19 CNS) | TGI (SNB-19 CNS) | GI50 (SR leukemia) [µM] | TGI (SR leukemia) [µM] | GI50 (SW-620 colon) | TGI (SW-620 colon) [µM]
1 | Cc1cn(-c2cc(NC(=O)c3cccc(C#Cc4cccc5[nH]nc(N)c45)c3)cc(C(F)(F)F)c2)cn1 | 10.4 µM | 35.2 | 3.86 | 16 | 3.99 | 18.3 µM | 2.35 µM | 16.7 µM | 4.81 | > 100 µM | 2.27 | 8.14 | 7.6 µM | > 100 µM | 8.14 µM | 32.7 µM | 5.06 | > 100 | 4.22 µM | > 100
2 | Cc1ccc(C)c(NC(=O)CC2Sc3ccccc3NC2=O)c1 (centres undefined) | 24.9 µM and 70.8 µM | > 100 | 38.3 | > 86.5 |  | 34.1 µM and 48.1 µM | 5.08 µM and 34.8 µM | 28.9 µM and > 65.6 µM |  | 26.1 µM and 74.2 µM |  | > 100 | 19.5 µM and 44.7 µM | 33.4 µM and > 88.1 µM |  | 42.1 µM and 63.8 µM |  | > 100 | 26.2 µM and > 77.1 µM | > 100
3 | O=C(NC(=O)c1c(F)cccc1F)Nc1cccc(Oc2ncc(Cl)cn2)c1 |  | > 100 |  | > 100 |  | 73.6 µM |  | > 100 µM |  | 77.3 µM |  | > 100 |  | > 100 µM |  | > 86.3 µM |  | > 73.8 |  | > 100
4 | COCCOC(=O)C1=C(O)c2ccccc2S(=O)(=O)N1C |  | > 100 |  | > 100 |  | > 100 µM |  | > 100 µM |  | > 100 µM |  | > 100 |  | > 100 µM |  | > 100 µM |  | > 100 |  | > 100
5 | N[C@H](C(=O)O)[C@@H]1CC(Cl)=NO1 | 6.06 µM | 678 | 28.4 | > 1000 | 6.27 | 170 µM |  | > 1000 µM | 10.2 | > 848 µM | 27.1 | 355 | 53.7 µM | > 1000 µM | 16.8 µM and 5.14 µM | > 661 µM | 3.44 | > 583 | 7.48 µM | > 1000
